Values of other authors, collected in patent publication US20180338982A1, “Cooperative Medication Combination Systems” (priority 2017, published 2018).

Details: in vivo

Half-life: 2 h
Compound: CCC(C)(C)C(=O)O[C@H]1C[C@@H](C)C=C2C=C[C@H](C)[C@H](CC[C@@H]3C[C@@H](O)CC(=O)O3)[C@H]21 [Simvastatin]
